Reference: US20240343706A1, “PIPERIDINE-2,6-DIONE DERIVATIVES WHICH BIND TO CEREBLON, AND METHODS OF USE THEREOF” (Captor Therapeutics S.A., priority 2019, published 2024)

Legend:
[1] = target: CRBN-DDB1 protein complex (Homo sapiens, UniProt Q96SW2); test: Fluorescence polarization (FP) assay, displacement of Cy5-labelled thalidomide; settings: 25 nM CRBN-DDB1, 5 nM Cy5-labelled thalidomide, read-out: CRBN binding Ki
Protocol: CRBN-DDB1 protein complex was mixed with Cy5-labelled thalidomide and a compound to be tested (the “test compound”). […] The test solution was added to a 384-well assay plate.
The plate was spun-down (1 min, 1000 rpm, 22° C.) and then shaken using a VibroTurbulator for 10 min at room temperature (20-25° C.), with the frequency set to level 3. The assay plate with protein and the tracer was incubated for 60 min at room temperature (20-25° C.) prior to read-out with a plate reader.
The FP experiment was carried out with various concentrations of the test compounds in order to measure Ki values.

[2] = test system: SALL4; test: SALL4 degradation assay, Kelly cell line (western blot densitometry); assay type: cell-based; settings: Kelly cells; for % of SALL4 protein reduction, based on densitometry values: 24 h; for % of protein reduction based on densitometry values, SALL4 (24 H): summary Table 10, 20 μM (some compounds 10 and 20 μM)
From the text: (§1) After primary and secondary Ab staining, the membranes were washed and signals developed. The densitometry analysis was implemented to obtain the numeric values used later in the protein level evaluation process.

[3] = test system: CK1α; test: CK1α degradation assay, Kelly cell line (western blot densitometry); assay type: cell-based; settings: Kelly cells; for % of CK1α protein reduction, based on densitometry values: 24 h; for % of protein reduction based on densitometry values, CK1α (24 H): summary Table 10, 20 μM (some compounds 10 and 20 μM)
From the text: as §1

[4] = test system: IKZF1; test: IKZF1 degradation assay, H929 cell line (western blot densitometry); assay type: cell-based; settings: H929 cells; for % of protein reduction based on densitometry values, IKZF 1 (24 H): summary Table 10, 20 μM (some compounds 10 and 20 μM)
From the text: as §1

[5] = test system: IKZF3; test: IKZF3 degradation assay, H929 cell line (western blot densitometry); assay type: cell-based; settings: H929 cells; for % of protein reduction based on densitometry values, IKZF3 (24 H): summary Table 10, 10 and 20 μM
[6] = target: BRD4-compound-CRBN/DDB1 ternary complex (Homo sapiens, UniProt O60885+Q96SW2); test: BRD4-compound-CRBN/DDB1 ternary complex formation, AlphaLISA homogenous assay; assay type: biochemical
Protocol: Biotinylated BRD4 and His-CRBN/DDB1 complex preparations were centrifugated to remove large aggregates (18000 rcf, 4° C., 5 min). Supernatant was collected and protein concentration was determined spectrophotometrically. The AlphaLISA bead-Protein mixtures were prepared: CRBN-acceptor bead (40 μg/ml Anti-6×His beads, 200 nM His-CRBN/DDB1 in PBS pH 7.4 supplemented with 0.1% Tween-20) and BRD4-donor bead (40 μg/ml Streptavidin beads, 40 nM BRD4 in PBS pH 7.4 supplemented with 0.1% Tween-20 and 2 mM DTT). Bead mixes were incubated in dark for 30 minutes at room temperature.
CRBN-acceptor bead mix and BRD4-donor bead mix were combined and dispensed into plate with compounds and DMSO only (10 μl of master mix per well). Final sample composition: 20 μg/ml Anti-6×His beads, 20 μg/ml Stretavidin beads, 100 nM His-CRBN/DDB1, 20 nM BRD4, 2% DMSO, 0.1% Tween-20, 1 mM DTT in PBS pH 7.4, +/− compound. Plate was sealed and covered to protect against light. Sample was mixed using Vibroturbulator. Subsequently, solutions in the plate was centrifugated and incubated in the dark for 30 minutes at 25° C. The plate seal was removed and sample luminescence was determined using Perkin Elmer Enspire plate reader. Readouts were assigned to certain compound concentration. Solutions without compound were utilized to determine background response (an average value) which subsequently was subtracted from raw data collected for compound mixtures.

[7] = target: BRD4 (Homo sapiens, UniProt O60885); test: BRD4 degradation assay, H929 cell line (Simple Western); settings: H929 cells, 6 h

Ki [1] [µM]	Structure (SMILES)	% of protein reduction based on densitometry values, SALL4 (24 H) [2]	% of protein reduction based on densitometry values, CK1α (24 H) [3]	% of protein reduction based on densitometry values, IKZF 1 (24 H) [4]	% of IKZF3 protein reduction based on densitometry values, IKZF3 Band I ([5]; 10 μM, 24 h)	% of IKZF3 protein reduction based on densitometry values, IKZF3 Band II ([5]; 10 μM, 24 h)	% of IKZF3 protein reduction based on densitometry values, IKZF3 Band I ([5]; 20 μM, 24 h)	% of IKZF3 protein reduction based on densitometry values, IKZF3 Band II ([5]; 20 μM, 24 h)	% of protein reduction based on densitometry values, IKZF3 (24 H) [5]	also measured
1 to 10	O=C1CCC(NC(=O)c2cccc3cnsc23)C(=O)N1 (stereo not shown) [Compound 50, N-(2,6-dioxopiperidin-3-yl)benzo[d]isothiazole-7-carboxamide]	≤25% (≤25% for 0-25% of SALL4 protein reduction)	≤25% (≤25% for 0-25% of CK1a protein reduction)	≤25% (≤25% for 0-25% of IKZF1 protein reduction)	≤25% (≤25% for 0-25% of IKZF3 protein reduction)	≤25% (≤25% for 0-25% of IKZF3 protein reduction)	≤25% (≤25% for 0-25% of IKZF3 protein reduction)	≤25% (≤25% for 0-25% of IKZF3 protein reduction)	≤25% (≤25% for 0-25% of IKZF3 protein reduction)	% of SALL4 protein reduction, based on densitometry values ([2]; 10 μM): ≤25% (≤25% for 0-25% of SALL4 protein reduction); % of SALL4 protein reduction, based on densitometry values ([2]; 20 μM): ≤25% (≤25% for 0-25% of SALL4 protein reduction); % of CK1α protein reduction, based on densitometry values ([3]; 10 μM): ≤25% (≤25% for 0-25% of CK1a protein reduction); % of CK1α protein reduction, based on densitometry values ([3]; 20 μM): ≤25% (≤25% for 0-25% of CK1a protein reduction); % of IKZF1 α protein reduction based on densitometry values ([4]; 10 μM, 24 h): ≤25% (≤25% for 0-25% of IKZF1 protein reduction); % of IKZF1 α protein reduction based on densitometry values ([4]; 20 μM, 24 h): ≤25% (≤25% for 0-25% of IKZF1 protein reduction)
< 1	Cc1nc2c(C(=O)NC3CCC(=O)NC3=O)cc(OCC(=O)NCCCCCCCCNC(=O)C[C@@H]3N=C(c4ccc(Cl)cc4)c4c(sc(C)c4C)-n4c(C)nnc43)cc2[nH]1 (stereo partly drawn) [Compound 66, 5-(2-((8-(2-((S)-4-(4-chlorophenyl)-2,3,9-trimethyl-6H-thieno[3,2-f][1,2,4]triazolo[4,3-a][1,4]diazepin-6-yl)acetamido)octyl)amino)-2-oxoethoxy)-N-(2,6-dioxopiperidin-3-yl)-2-methyl-1H-benzo[d]imidazole-7-carboxamide]									% of IKZF1 α protein reduction based on densitometry values ([4]; 0.1 μM, 6 h): ≤25% (≤25% for 0-25% of IKZF1 protein reduction); % of IKZF1 α protein reduction based on densitometry values ([4]; 1 μM, 6 h): ≤25% (≤25% for 0-25% of IKZF1 protein reduction); % of IKZF1 α protein reduction based on densitometry values ([4]; 10 μM, 6 h): ≤25% (≤25% for 0-25% of IKZF1 protein reduction); % of IKZF3 protein reduction based on densitometry values, IKZF3 Band I ([5]; 0.1 μM, 6 h): ≤25% (≤25% for 0-25% of IKZF3 protein reduction); % of IKZF3 protein reduction based on densitometry values, IKZF3 Band II ([5]; 0.1 μM, 6 h): ≤25% (≤25% for 0-25% of IKZF3 protein reduction); % of IKZF3 protein reduction based on densitometry values, IKZF3 Band I ([5]; 1 μM, 6 h): ≤25% (≤25% for 0-25% of IKZF3 protein reduction); % of IKZF3 protein reduction based on densitometry values, IKZF3 Band II ([5]; 1 μM, 6 h): ≤25% (≤25% for 0-25% of IKZF3 protein reduction); % of IKZF3 protein reduction based on densitometry values, IKZF3 Band I ([5]; 10 μM, 6 h): ≤25% (≤25% for 0-25% of IKZF3 protein reduction); % of IKZF3 protein reduction based on densitometry values, IKZF3 Band II ([5]; 10 μM, 6 h): ≤25% (≤25% for 0-25% of IKZF3 protein reduction); EC50 ([6]; 100 nM His-CRBN/DDB1, 20 nM BRD4, N = 3, read-out: TF50 (compound concentration which mediate the half of maximal response observed for Ternary Complex)): 0.0421 µM; Normalized AUC to dBET1 ([6]; area under curve 1.63-2500 nM, normalized to dBET1): 1.53; BRD4 degradation (in words) [7]: can degrade BRD4
< 1	Cc1nc2c(C(=O)NC3CCC(=O)NC3=O)cccc2[nH]1 (stereo not shown) [Compound 15, N-(2,6-dioxopiperidin-3-yl)-2-methyl-1H-benzo[d]imidazole-4-carboxamide]	≤25% (≤25% for 0-25% of SALL4 protein reduction)	≤25% (≤25% for 0-25% of CK1a protein reduction)	≤25% (≤25% for 0-25% of IKZF1 protein reduction)	≤25% (≤25% for 0-25% of IKZF3 protein reduction)	≤25% (≤25% for 0-25% of IKZF3 protein reduction)	≤25% (≤25% for 0-25% of IKZF3 protein reduction)	≤25% (≤25% for 0-25% of IKZF3 protein reduction)	≤25% (≤25% for 0-25% of IKZF3 protein reduction)	
